Tests used:
Type in all cases: functional, Homo sapiens
Design in all cases: dose or concentration left out as unconfirmed
[1] = test system: Colon cancer organoid; test: Optimized Dual-Glo assay to identify co-culture induced drug vulnerabilities using donated chemical probes and chemogenomics kinase set in O20 CRC organoid and F20 CAF mono and co-culture. […] Cell viability is reported both mono and co-culture models.
[2] = test system: Colon cancer organoid; test: Optimized Dual-Glo assay to identify co-culture induced drug vulnerabilities using donated chemical probes and chemogenomics kinase set in O06 CRC organoid and F06 CAF mono and co-culture. […] Cell viability is reported both mono and co-culture models.
[3] = test system: Colon cancer organoid; test: Optimized Dual-Glo assay to identify co-culture induced drug vulnerabilities using donated chemical probes and chemogenomics kinase set in O14 CRC organoid and F14 CAF mono and co-culture. […] Cell viability is reported both mono and co-culture models.
[4] = Culture type Co-Culture, Transduced with Lucferase2-P2A-EGFP lentivirus
[5] = Culture type Co-Culture, Transduced with Renilla-dsRed lentivirus
[6] = Culture type Mono-Culture, Transduced with Lucferase2-P2A-EGFP lentivirus
[7] = Culture type Mono-Culture, Transduced with Renilla-dsRed lentivirus

Cl.Cl.Cl.c1ccc(N2CCN(Cc3nc4ccccc4[nH]3)CC2)nc1
Cell Viability [1, 4]: 41.4322% | Cell Viability [1, 5]: 124.541% | Cell Viability [1, 6]: 78.9868% | Cell Viability [1, 7]: 88.4978% | Cell Viability [2, 4]: 145.739% | Cell Viability [2, 5]: 162.508% | Cell Viability [2, 6]: 117.947% | Cell Viability [2, 7]: 106.828% | Cell Viability [3, 4]: 78.8417% | Cell Viability [3, 5]: 120.535% | Cell Viability [3, 6]: 87.6489% | Cell Viability [3, 7]: 99.3304%

O=C(Nc1cccnn1)N1CCC(=Cc2cccc(Oc3ccc(C(F)(F)F)cn3)c2)CC1
Cell Viability [1, 4]: 75.4997% | Cell Viability [1, 5]: 114.419% | Cell Viability [1, 6]: 100.525% | Cell Viability [1, 7]: 97.4491% | Cell Viability [2, 4]: 113.161% | Cell Viability [2, 5]: 193.053% | Cell Viability [2, 6]: 80.1285% | Cell Viability [2, 7]: 90.1757% | Cell Viability [3, 4]: 80.0964% | Cell Viability [3, 5]: 115.877% | Cell Viability [3, 6]: 79.6396% | Cell Viability [3, 7]: 77.8588%

COc1ccccc1S(=O)(=O)Nc1ccc2c(c1)CN(C)C(=O)N2
Cell Viability [1, 4]: 111.384% | Cell Viability [1, 5]: 99.8859% | Cell Viability [1, 6]: 75.6376% | Cell Viability [1, 7]: 98.229% | Cell Viability [2, 4]: 75.1061% | Cell Viability [2, 5]: 112.248% | Cell Viability [2, 6]: 98.6756% | Cell Viability [2, 7]: 116.533% | Cell Viability [3, 4]: 98.1337% | Cell Viability [3, 5]: 101.069% | Cell Viability [3, 6]: 91.805% | Cell Viability [3, 7]: 99.3977%

COc1cc2c(cc1NS(=O)(=O)c1ccc(Br)cc1C)n(C)c(=O)n2C
Cell Viability [1, 4]: 86.3374% | Cell Viability [1, 5]: 193.757% | Cell Viability [1, 6]: 91.9028% | Cell Viability [1, 7]: 113.163% | Cell Viability [2, 4]: 53.0589% | Cell Viability [2, 5]: 146.987% | Cell Viability [2, 6]: 78.5311% | Cell Viability [2, 7]: 120.075% | Cell Viability [3, 4]: 78.4023% | Cell Viability [3, 5]: 92.6515% | Cell Viability [3, 6]: 95.4962% | Cell Viability [3, 7]: 108.084%

Clc1cccc(-c2nnnn2Cc2cccnc2)c1Cl
Cell Viability [1, 4]: 106.259% | Cell Viability [1, 5]: 101.74% | Cell Viability [1, 6]: 98.4532% | Cell Viability [1, 7]: 98.284% | Cell Viability [2, 4]: 143.79% | Cell Viability [2, 5]: 176.132% | Cell Viability [2, 6]: 116.081% | Cell Viability [2, 7]: 109.73% | Cell Viability [3, 4]: 106.43% | Cell Viability [3, 5]: 104.512% | Cell Viability [3, 6]: 115.794% | Cell Viability [3, 7]: 81.6635%

Cc1nc(N2CC[C@H](O)C2)ncc1-c1cc(C(F)(F)F)cc2[nH]ncc12
Cell Viability [1, 4]: 47.2711% | Cell Viability [1, 5]: 153.575% | Cell Viability [1, 6]: 55.4223% | Cell Viability [1, 7]: 100.169% | Cell Viability [2, 4]: 111.861% | Cell Viability [2, 5]: 161.788% | Cell Viability [2, 6]: 77.8362% | Cell Viability [2, 7]: 94.0965% | Cell Viability [3, 4]: 63.6905% | Cell Viability [3, 5]: 138.157% | Cell Viability [3, 6]: 56.4353% | Cell Viability [3, 7]: 87.4633%

O=C1CCc2cc(Nc3cc(OC4CCOCC4)c([N+](=O)[O-])cc3Cl)ccc2N1
Cell Viability [1, 4]: 150.133% | Cell Viability [1, 5]: 114.972% | Cell Viability [1, 6]: 136.194% | Cell Viability [1, 7]: 114.49% | Cell Viability [2, 4]: 112.978% | Cell Viability [2, 5]: 126.115% | Cell Viability [2, 6]: 116.283% | Cell Viability [2, 7]: 106.249% | Cell Viability [3, 4]: 95.0687% | Cell Viability [3, 5]: 106.674% | Cell Viability [3, 6]: 142.925% | Cell Viability [3, 7]: 117.869%

CCNC(=O)c1cc2c(N3CCOC[C@@H]3C)ccnc2n1C
Cell Viability [1, 4]: 107.341% | Cell Viability [1, 5]: 102.95% | Cell Viability [1, 6]: 119.318% | Cell Viability [1, 7]: 105.417% | Cell Viability [2, 4]: 128.018% | Cell Viability [2, 5]: 156.16% | Cell Viability [2, 6]: 122.983% | Cell Viability [2, 7]: 98.196% | Cell Viability [3, 4]: 83.5289% | Cell Viability [3, 5]: 107.252% | Cell Viability [3, 6]: 73.6623% | Cell Viability [3, 7]: 93.9449%

CCc1cc(Nc2nccc(-c3c(-c4ccc(OC)c(C(=O)Nc5c(F)cccc5F)c4)nc4ccccn34)n2)c(OC)cc1N1CCC(N2CCN(S(C)(=O)=O)CC2)CC1
Cell Viability [1, 4]: 116.043% | Cell Viability [1, 5]: 82.2783% | Cell Viability [1, 6]: 81.9449% | Cell Viability [1, 7]: 100.572% | Cell Viability [2, 4]: 86.7992% | Cell Viability [2, 5]: 78.7013% | Cell Viability [2, 6]: 91.9397% | Cell Viability [2, 7]: 111.569% | Cell Viability [3, 4]: 94.7667% | Cell Viability [3, 5]: 100.13% | Cell Viability [3, 6]: 92.2589% | Cell Viability [3, 7]: 95.6551%

Cc1c(C(=O)O)cc(-c2ccc(C3CCNCC3)cc2)c2ccc(-c3ccc(C(F)(F)F)cc3)cc12.Cl
Cell Viability [1, 4]: 115.549% | Cell Viability [1, 5]: 99.1911% | Cell Viability [1, 6]: 103.532% | Cell Viability [1, 7]: 103.975% | Cell Viability [2, 4]: 69.2582% | Cell Viability [2, 5]: 93.9723% | Cell Viability [2, 6]: 78.1885% | Cell Viability [2, 7]: 87.9203% | Cell Viability [3, 4]: 89.0162% | Cell Viability [3, 5]: 119.102% | Cell Viability [3, 6]: 89.8992% | Cell Viability [3, 7]: 99.4723%

C[C@@H](c1cccc(CN)c1)n1cc(Cl)cc(C(N)=O)c1=N.Cl
Cell Viability [1, 4]: 85.1583% | Cell Viability [1, 5]: 93.567% | Cell Viability [1, 6]: 85.5992% | Cell Viability [1, 7]: 85.7646% | Cell Viability [2, 4]: 104.535% | Cell Viability [2, 5]: 114.984% | Cell Viability [2, 6]: 142.418% | Cell Viability [2, 7]: 104.758% | Cell Viability [3, 4]: 79.0577% | Cell Viability [3, 5]: 134.768% | Cell Viability [3, 6]: 97.3624% | Cell Viability [3, 7]: 96.7861%

C[C@@H](c1cccc(C#N)c1)n1cc(Cl)cc(C(N)=O)c1=N.Cl
Cell Viability [1, 4]: 64.263% | Cell Viability [1, 5]: 72.4154% | Cell Viability [1, 6]: 105.334% | Cell Viability [1, 7]: 111.16% | Cell Viability [2, 4]: 92.5611% | Cell Viability [2, 5]: 127.503% | Cell Viability [2, 6]: 97.2998% | Cell Viability [2, 7]: 98.9566% | Cell Viability [3, 4]: 96.0836% | Cell Viability [3, 5]: 104.787% | Cell Viability [3, 6]: 81.7502% | Cell Viability [3, 7]: 103.626%

O=C(Nc1cccnn1)N1CC(C/C=C/c2cncc(Oc3ccc(C(F)(F)F)cn3)n2)C1
Cell Viability [1, 4]: 97.9448% | Cell Viability [1, 5]: 112.944% | Cell Viability [1, 6]: 119.523% | Cell Viability [1, 7]: 106.69% | Cell Viability [2, 4]: 131.321% | Cell Viability [2, 5]: 196.307% | Cell Viability [2, 6]: 116.585% | Cell Viability [2, 7]: 92.4101% | Cell Viability [3, 4]: 84.7499% | Cell Viability [3, 5]: 109.288% | Cell Viability [3, 6]: 99.5215% | Cell Viability [3, 7]: 99.7577%

CCNC(=O)c1cc2c(N3CCOCC3C)ccnc2[nH]1 (stereo not drawn)
Cell Viability [1, 4]: 144.452% | Cell Viability [1, 5]: 100.256% | Cell Viability [1, 6]: 103.659% | Cell Viability [1, 7]: 101.624% | Cell Viability [2, 4]: 131.632% | Cell Viability [2, 5]: 146.353% | Cell Viability [2, 6]: 109.161% | Cell Viability [2, 7]: 91.669% | Cell Viability [3, 4]: 86.1024% | Cell Viability [3, 5]: 100.89% | Cell Viability [3, 6]: 87.7409% | Cell Viability [3, 7]: 81.9796%
